Source: ChEMBL document CHEMBL2046282, “Structure-based optimization of aminopyridines as PKCθ inhibitors” (Bioorg Med Chem Lett, 2012)

Assays:
[1] = molecular target: T1, Protein kinase C theta type (Homo sapiens, UniProt Q04759); experiment: Inhibition of PKCtheta
[2] = molecular target: Protein kinase C delta type (Homo sapiens, UniProt Q05655); experiment: Inhibition of PKCdelta
[3] = molecular target: Protein kinase C alpha type (Homo sapiens, UniProt P17252); experiment: Inhibition of PKCalpha
[4] = molecular target: T1, Protein kinase C theta type; experiment: Inhibition of PKCtheta-mediated IL-2 production by cell based assay
[5] = molecular target: Tyrosine-protein kinase Lck (Homo sapiens, UniProt P06239); experiment: Inhibition of LCK
Chain of Tyrosine-protein kinase Lck (P06239 whole entry): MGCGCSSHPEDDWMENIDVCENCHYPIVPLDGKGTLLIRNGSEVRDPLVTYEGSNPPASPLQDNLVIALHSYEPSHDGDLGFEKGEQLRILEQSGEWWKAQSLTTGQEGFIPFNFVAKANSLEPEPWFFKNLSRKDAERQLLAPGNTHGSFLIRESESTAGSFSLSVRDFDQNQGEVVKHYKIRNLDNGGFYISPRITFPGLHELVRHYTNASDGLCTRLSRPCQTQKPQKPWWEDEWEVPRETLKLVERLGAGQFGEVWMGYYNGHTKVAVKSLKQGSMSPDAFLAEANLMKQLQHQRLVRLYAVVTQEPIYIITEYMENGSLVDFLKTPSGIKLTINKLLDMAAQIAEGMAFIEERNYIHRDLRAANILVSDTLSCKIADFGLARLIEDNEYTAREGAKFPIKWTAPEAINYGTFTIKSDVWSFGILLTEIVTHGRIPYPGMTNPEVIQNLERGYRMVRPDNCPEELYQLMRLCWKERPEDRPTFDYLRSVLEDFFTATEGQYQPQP

[6] = molecular target: Tyrosine-protein kinase ITK/TSK (Homo sapiens, UniProt Q08881); experiment: Inhibition of ITK
Chain of Tyrosine-protein kinase ITK/TSK (Q08881 whole entry): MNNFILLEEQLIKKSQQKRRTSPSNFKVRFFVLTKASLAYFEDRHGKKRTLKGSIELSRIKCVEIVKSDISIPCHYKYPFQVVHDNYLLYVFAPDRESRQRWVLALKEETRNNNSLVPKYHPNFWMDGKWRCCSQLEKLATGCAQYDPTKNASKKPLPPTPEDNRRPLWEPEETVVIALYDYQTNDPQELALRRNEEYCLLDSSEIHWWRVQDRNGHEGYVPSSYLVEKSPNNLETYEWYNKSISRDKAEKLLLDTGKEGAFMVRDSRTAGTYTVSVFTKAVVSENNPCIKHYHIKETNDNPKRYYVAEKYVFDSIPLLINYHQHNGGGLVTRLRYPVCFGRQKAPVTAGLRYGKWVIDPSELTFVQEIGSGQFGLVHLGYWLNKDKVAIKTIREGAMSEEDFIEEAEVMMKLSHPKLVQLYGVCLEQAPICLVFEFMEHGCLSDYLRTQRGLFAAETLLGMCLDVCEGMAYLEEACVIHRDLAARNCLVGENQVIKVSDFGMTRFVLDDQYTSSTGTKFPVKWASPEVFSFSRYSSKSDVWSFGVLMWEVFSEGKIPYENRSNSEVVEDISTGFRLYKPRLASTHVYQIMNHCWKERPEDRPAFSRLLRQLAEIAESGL

[7] = molecular target: Tyrosine-protein kinase Fyn (Homo sapiens, UniProt P06241); experiment: Inhibition of FYN
[8] = molecular target: Tyrosine-protein kinase Lyn (Homo sapiens, UniProt P07948); experiment: Inhibition of LYN
[9] = molecular target: Tyrosine-protein kinase ZAP-70 (Homo sapiens, UniProt P43403); experiment: Inhibition of ZAP70
Chain of Tyrosine-protein kinase ZAP-70 (P43403 whole entry): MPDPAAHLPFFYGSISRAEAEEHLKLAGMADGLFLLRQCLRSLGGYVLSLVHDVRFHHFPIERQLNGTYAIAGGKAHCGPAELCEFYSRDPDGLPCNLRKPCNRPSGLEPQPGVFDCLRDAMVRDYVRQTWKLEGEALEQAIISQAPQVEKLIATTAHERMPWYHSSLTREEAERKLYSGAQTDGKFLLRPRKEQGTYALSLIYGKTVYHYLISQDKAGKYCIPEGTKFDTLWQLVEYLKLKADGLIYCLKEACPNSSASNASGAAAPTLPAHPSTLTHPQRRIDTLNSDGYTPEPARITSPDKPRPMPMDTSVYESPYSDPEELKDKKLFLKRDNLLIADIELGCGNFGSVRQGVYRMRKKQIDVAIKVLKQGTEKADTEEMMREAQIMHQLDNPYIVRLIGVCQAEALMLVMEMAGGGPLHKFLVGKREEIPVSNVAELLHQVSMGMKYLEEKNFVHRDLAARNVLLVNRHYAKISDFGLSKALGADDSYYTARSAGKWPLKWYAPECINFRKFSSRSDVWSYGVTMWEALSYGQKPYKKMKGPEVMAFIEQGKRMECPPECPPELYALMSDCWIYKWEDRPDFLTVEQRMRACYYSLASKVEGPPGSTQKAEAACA

[10] = molecular target: RAF proto-oncogene serine/threonine-protein kinase (Homo sapiens, UniProt P04049); experiment: Inhibition of c-Raf
[11] = molecular target: Mitogen-activated protein kinase 3 (Homo sapiens, UniProt P27361); experiment: Inhibition of ERK1
Chain of Mitogen-activated protein kinase 3 (P27361 whole entry): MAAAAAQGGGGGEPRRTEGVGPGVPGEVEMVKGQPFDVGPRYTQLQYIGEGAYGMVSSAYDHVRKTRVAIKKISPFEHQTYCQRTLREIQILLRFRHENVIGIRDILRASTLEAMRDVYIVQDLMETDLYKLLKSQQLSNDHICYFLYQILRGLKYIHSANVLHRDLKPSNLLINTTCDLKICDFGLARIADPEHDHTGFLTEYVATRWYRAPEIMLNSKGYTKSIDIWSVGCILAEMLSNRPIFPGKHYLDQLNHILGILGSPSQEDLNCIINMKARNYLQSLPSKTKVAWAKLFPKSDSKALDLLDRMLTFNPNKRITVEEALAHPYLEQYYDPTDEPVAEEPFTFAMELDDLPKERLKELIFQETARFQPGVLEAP

[12] = molecular target: Tyrosine-protein kinase JAK2 (Homo sapiens, UniProt O60674); experiment: Inhibition of JAK2
[13] = molecular target: Rho-associated protein kinase 1 (Homo sapiens, UniProt Q13464); experiment: Inhibition of ROCK1
[14] = molecular target: Receptor-type tyrosine-protein kinase FLT3 (Homo sapiens, UniProt P36888); experiment: Inhibition of Flt3
[15] = molecular target: Phosphatidylinositol 4,5-bisphosphate 3-kinase catalytic subunit gamma isoform (Homo sapiens, UniProt P48736); experiment: Inhibition of PI3Kgamma
[16] = molecular target: Protein kinase C beta type (Homo sapiens, UniProt P05771); experiment: Inhibition of PKCbeta
[17] = molecular target: Protein kinase C epsilon type (Homo sapiens, UniProt Q02156); experiment: Inhibition of PKCepsilon
Chain of Protein kinase C epsilon type (Q02156 whole entry, canonical isoform): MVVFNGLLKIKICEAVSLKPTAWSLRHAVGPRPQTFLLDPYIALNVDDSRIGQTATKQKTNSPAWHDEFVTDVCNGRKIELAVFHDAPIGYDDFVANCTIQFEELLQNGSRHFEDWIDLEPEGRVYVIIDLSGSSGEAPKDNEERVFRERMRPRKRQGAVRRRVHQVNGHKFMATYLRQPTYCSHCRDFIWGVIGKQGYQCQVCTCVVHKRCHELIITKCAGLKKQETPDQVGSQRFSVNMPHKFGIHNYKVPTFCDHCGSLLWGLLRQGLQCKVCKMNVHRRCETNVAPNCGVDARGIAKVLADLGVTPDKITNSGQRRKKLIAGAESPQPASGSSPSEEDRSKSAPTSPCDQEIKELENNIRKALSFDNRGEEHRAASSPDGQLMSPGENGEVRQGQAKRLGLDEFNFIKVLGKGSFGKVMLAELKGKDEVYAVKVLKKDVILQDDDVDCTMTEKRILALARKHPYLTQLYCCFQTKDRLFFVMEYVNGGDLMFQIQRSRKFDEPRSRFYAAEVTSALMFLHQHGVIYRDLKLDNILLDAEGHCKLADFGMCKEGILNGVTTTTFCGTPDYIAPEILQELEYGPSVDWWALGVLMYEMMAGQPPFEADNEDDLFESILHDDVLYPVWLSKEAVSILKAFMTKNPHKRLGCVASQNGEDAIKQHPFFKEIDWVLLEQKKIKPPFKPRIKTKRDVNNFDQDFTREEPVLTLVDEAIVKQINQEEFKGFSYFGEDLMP

[18] = molecular target: Phosphatidylinositol 4,5-bisphosphate 3-kinase catalytic subunit alpha isoform (Homo sapiens, UniProt P42336); experiment: Inhibition of PI3Kalpha
[19] = molecular target: Cyclin-dependent kinase 2 (Homo sapiens, UniProt P24941); experiment: Inhibition of CDK2
[20] = molecular target: Vascular endothelial growth factor receptor 2 (Homo sapiens, UniProt P35968); experiment: Inhibition of KDR
[21] = molecular target: Serine/threonine-protein kinase PLK1 (Homo sapiens, UniProt P53350); experiment: Inhibition of Plk
[22] = molecular target: Mitogen-activated protein kinase 10 (Homo sapiens, UniProt P53779); experiment: Inhibition of JNK3
[23] = Clearance in mouse at 3 mg/kg, iv and 10 mg/kg, po; assay type: ADME, organism-based; conditions: in vivo
[24] = Half life in mouse at 3 mg/kg, iv and 10 mg/kg, po; assay type: ADME, organism-based; conditions: in vivo
[25] = Apparent volume of distribution in mouse at 3 mg/kg, iv and 10 mg/kg, po; assay type: ADME, organism-based; conditions: in vivo, read-out: Vz
[26] = Volume of distribution at steady state in mouse at 3 mg/kg, iv and 10 mg/kg, po; assay type: ADME, organism-based; conditions: in vivo, read-out: Vdss
[27] = Mean residence time in mouse at 3 mg/kg, iv and 10 mg/kg, po; assay type: ADME, organism-based; conditions: in vivo
[28] = Oral bioavailability in mouse at 10 mg/kg; assay type: ADME, organism-based; conditions: in vivo
Plasma = experiment: fCmax in Staphlyococcal enterotoxin B challenged Balb/c mouse plasma at 100 mg/kg, po after 2 hrs; assay type: ADME, organism-based; parameters: dose 100 mg/kg, route oral; conditions: in vivo
[29] = Selectivity ratio of Ki for Src to Ki for PKCtheta
[30] = Selectivity ratio of Ki for PKA to Ki for PKCtheta
[31] = Selectivity ratio of Ki for GSK3beta to Ki for PKCtheta
[32] = Permeability from apical to basolateral side of human Caco2 cells; assay type: ADME, cell-based; conditions: Caco-2, read-out: permeability
[33] = Permeability from basolateral to apical side of human Caco2 cells; assay type: ADME, cell-based; conditions: Caco-2, read-out: permeability

T1 sequence (Q04759 whole entry): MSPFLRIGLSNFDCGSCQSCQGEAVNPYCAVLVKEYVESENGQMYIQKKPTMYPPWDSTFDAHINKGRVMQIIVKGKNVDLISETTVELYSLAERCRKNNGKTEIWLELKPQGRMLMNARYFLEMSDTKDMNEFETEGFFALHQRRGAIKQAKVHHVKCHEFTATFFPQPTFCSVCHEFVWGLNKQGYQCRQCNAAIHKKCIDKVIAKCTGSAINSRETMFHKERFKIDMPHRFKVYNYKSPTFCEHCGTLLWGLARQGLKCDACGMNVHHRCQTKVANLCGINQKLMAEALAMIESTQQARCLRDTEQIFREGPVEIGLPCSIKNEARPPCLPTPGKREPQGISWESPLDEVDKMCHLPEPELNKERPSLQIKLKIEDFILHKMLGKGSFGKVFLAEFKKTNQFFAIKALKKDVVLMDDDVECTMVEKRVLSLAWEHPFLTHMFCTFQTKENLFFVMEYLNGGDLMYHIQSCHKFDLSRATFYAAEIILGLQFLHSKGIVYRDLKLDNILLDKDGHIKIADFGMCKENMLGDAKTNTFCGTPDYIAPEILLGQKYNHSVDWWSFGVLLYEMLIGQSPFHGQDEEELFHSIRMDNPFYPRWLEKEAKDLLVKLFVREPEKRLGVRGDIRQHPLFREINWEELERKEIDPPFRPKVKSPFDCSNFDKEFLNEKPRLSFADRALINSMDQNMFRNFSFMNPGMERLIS
Chain of Protein kinase C delta type (Q05655 whole entry): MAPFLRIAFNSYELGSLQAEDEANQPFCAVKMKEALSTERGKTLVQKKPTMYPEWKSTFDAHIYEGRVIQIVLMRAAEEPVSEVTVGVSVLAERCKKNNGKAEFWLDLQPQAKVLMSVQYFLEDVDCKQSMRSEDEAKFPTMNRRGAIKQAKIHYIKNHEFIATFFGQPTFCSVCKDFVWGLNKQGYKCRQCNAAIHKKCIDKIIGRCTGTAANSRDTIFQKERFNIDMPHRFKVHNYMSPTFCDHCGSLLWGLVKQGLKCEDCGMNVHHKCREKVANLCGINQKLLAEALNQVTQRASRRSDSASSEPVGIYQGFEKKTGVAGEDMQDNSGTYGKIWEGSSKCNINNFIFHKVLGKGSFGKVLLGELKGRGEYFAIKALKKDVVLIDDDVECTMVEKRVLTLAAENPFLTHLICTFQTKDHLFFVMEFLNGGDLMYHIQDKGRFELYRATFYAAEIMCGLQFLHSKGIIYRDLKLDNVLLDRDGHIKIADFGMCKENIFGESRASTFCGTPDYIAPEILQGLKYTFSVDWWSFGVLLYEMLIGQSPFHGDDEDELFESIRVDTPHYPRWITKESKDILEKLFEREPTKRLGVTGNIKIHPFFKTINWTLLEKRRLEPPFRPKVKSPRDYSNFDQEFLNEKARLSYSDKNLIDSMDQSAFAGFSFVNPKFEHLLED

CC(C)C[C@H]1CN(c2ccc(C(F)(F)F)c(C(=O)c3cccnc3N)n2)CCN1
Ki [1]: 3 nM | Ki [2]: 37 nM | Ki [3]: 76 nM | IC50 [4]: 52 nM | IC50 [5]: > 2000 nM | IC50 [6]: > 2000 nM | IC50 [7]: > 2000 nM | IC50 [8]: > 2000 nM | IC50 [9]: > 2000 nM | IC50 [10]: > 2000 nM | IC50 [11]: > 2000 nM | Ki [12]: > 4 µM | Ki [13]: > 4 µM | Ki [14]: 580 nM | Ki [15]: > 4 µM | Ki [16]: 260 nM | Ki [17]: 17 nM | Ki [18]: > 4 µM | Ki [19]: > 4 µM | Ki [20]: > 4 µM | Ki [21]: > 4 µM | Ki [22]: > 4 µM | clearance [23]: 203 mL/min/kg | half-life [24]: 78 min | Vd [25]: 19.7 L/kg | Vd [26]: 15.8 L/kg | MRT [27]: 1.4 h | bioavailability [28]: 45% | fCmax (Plasma): 150 nM

CC(C)C[C@H]1CN(c2ccc(OC(F)F)c(C(=O)c3cccnc3N)n2)CCN1
Ki [1]: 7 nM | Ki [2]: 87 nM | Ki [3]: 459 nM | IC50 [4]: 229 nM | Ratio Ki [29]: > 570 | Ratio Ki [30]: 84 | Ratio Ki [31]: > 570

Cc1cc(C(=O)c2cccnc2N)nc(N2CCN[C@@H](CC(C)C)C2)c1
Ki [3]: 459 nM

Nc1ncccc1C(=O)c1cccc(N2CCC(N)C2)n1 (configuration not stated)
Ki [1]: 1520 nM

CC(C)C[C@H]1CN(c2cccc(C(=O)c3cccnc3N)n2)CCN1
Ki [1]: 3 nM | Ki [2]: 20 nM | Ki [3]: 54 nM | IC50 [4]: 165 nM | Ratio Ki [29]: > 1400 | Ratio Ki [30]: 60 | Ratio Ki [31]: 143

CC(C)C[C@H]1CN(c2ccc(C3CC3)c(C(=O)c3cccnc3N)n2)CCN1
Ki [3]: 2650 nM

CC(C)C[C@H]1CN(c2ccc(Cl)c(C(=O)c3cccnc3N)n2)CCN1
Ki [1]: 2 nM | Ki [2]: 22 nM | Ki [3]: 49 nM | IC50 [4]: 58 nM | Ratio Ki [29]: > 4000 | Ratio Ki [30]: 38 | Ratio Ki [31]: 255

CC(C)C[C@H]1CN(c2ccc(Cc3ccccc3)c(C(=O)c3cccnc3N)n2)CCN1
Ki [3]: > 1250 nM

CCCc1ccc(N2CCN[C@@H](CC(C)C)C2)nc1C(=O)c1cccnc1N
Ki [3]: 1230 nM

Nc1ncccc1C(=O)c1cccc(N2CCCNCC2)n1
Papp A→B [32]: 9 ×10⁻⁶ cm/s | Papp B→A [33]: 11 ×10⁻⁶ cm/s
